In ChEMBL document CHEMBL1177743, “Symbiopolyol, a VCAM-1 inhibitor from a symbiotic dinoflagellate of the jellyfish Mastigias papua” (J Nat Prod, 2010):
pIC50: −log10 of the molar value.

Legend:
[1] = biological target: T1, Vascular cell adhesion protein 1 (Homo sapiens) (UniProt P19320); test: Inhibition of VCAM1 in TNF-alpha/IL4-stimulated HUVEC assessed as inhibition of cell adhesion between HUVEC and Ramos cells at 8 uM after 20 hrs incubation relative to untreated control; assay type: cell-based
T1 sequence (whole entry): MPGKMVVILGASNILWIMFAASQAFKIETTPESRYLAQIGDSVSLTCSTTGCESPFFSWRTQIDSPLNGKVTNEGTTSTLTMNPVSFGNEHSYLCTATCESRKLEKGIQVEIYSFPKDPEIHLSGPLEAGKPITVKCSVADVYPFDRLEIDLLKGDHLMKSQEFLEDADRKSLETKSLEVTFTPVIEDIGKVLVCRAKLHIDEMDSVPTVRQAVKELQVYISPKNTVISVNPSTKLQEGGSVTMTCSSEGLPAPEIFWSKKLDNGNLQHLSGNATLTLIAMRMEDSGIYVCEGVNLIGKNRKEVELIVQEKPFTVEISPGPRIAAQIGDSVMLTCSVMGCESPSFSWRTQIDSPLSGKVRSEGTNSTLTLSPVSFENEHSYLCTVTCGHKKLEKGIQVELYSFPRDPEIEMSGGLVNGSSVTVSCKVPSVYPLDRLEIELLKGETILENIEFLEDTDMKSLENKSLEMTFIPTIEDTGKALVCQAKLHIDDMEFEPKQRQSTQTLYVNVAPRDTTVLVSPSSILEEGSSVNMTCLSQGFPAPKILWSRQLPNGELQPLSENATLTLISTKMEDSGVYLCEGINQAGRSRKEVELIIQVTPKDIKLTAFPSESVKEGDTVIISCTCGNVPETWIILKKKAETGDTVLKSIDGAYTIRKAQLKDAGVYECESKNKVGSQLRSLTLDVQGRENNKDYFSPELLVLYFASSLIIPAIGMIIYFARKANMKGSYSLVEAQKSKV

[2] = system: HUVEC; test: Toxicity in HUVEC up to 12 uM; assay type: cell-based; details: human
[3] = system: HUVEC; test: Inhibition of VCAM1 expression in TNF-alpha-stimulated HUVEC pretreated 30 mins before TNFalpha challenge for 18 hrs by ELISA; assay type: functional, cell-based; details: Homo sapiens

inhibition [1]: 77%
Compound: C=CCC/C=C/C=C/C=C/CC/C=C/[C@@H](O)[C@H](O)[C@@H]1O[C@@H]([C@H](O)[C@@H](O)C(=C)CC[C@@H](O)[C@H]2C[C@@H](O)[C@@H](O)[C@H]([C@@H](O)[C@H](O)/C=C(\C)CC[C@H](O)C[C@H](O)[C@H](O)C(C)C(O)C(O)C/C=C/CC(O)/C=C/CCCCCOS(=O)(=O)[O-])O2)C[C@@H](O)[C@H]1O.[Na+] (stereo partly drawn) [SYMBIOPOLYOL]
Activity [2]: Non-toxic
pIC50 [3]: 5.18
